Source: PMC3827244, “An Ultrasensitive High Throughput Screen for DNA Methyltransferase 1-Targeted Molecular Probes” (PLoS ONE, 2013)
Read-outs that look alike come from different tables or passages of the source.

Tests used:
[1] = test system: calf thymus DNA; test: DNA intercalation assay (ethidium bromide displacement); assay type: binding; details: 10 µM compound, 15 µg/ml ctDNA, 1.5 µM ethidium bromide; DMSO 2370 ± 190
Procedure: DNA intercalation was assessed by examining the ability of the compounds to displace ethidium bromide from calf thymus DNA (ctDNA; Sigma). Duplicate assays (100 µl) were conducted in black 96 well plates and contained 15 µg/ml ctDNA, 1.5 µM ethidium bromide and 10 µM compound in methylation assay buffer. DMSO was used as a negative control and daunorubicin (Sigma) was used as a positive control. Fluorescence was measured using excitation and emission wavelengths of 320 nm and 600 nm, respectively.

[2] = target: T1, M.SssI DNMT (Spiroplasma monobiae, UniProt P15840); test: Compound selectivity, endonuclease-coupled DNA methylation assay; assay type: biochemical, bacterial; details: 1.25 h; 20 µM inhibitor, 20 nM methyltransferase, 0.25 mM SAM; read-out: Percent activity, M.SssI DNMT
T1 construct: purchased New England Biolabs
T1 sequence (P15840 whole entry): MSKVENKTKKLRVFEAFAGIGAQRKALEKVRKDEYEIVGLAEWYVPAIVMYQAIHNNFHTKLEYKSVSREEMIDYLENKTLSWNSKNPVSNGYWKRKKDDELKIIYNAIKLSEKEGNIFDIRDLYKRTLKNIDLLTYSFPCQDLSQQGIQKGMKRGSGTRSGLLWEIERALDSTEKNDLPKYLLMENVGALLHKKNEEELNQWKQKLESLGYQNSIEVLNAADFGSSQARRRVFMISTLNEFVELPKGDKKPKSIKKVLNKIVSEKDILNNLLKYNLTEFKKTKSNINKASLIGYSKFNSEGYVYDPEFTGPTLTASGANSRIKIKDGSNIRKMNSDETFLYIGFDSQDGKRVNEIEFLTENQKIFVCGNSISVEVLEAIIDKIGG
Procedure: After identifying direct inhibitors of DNMT1 lacking the RFTS domain, inhibitor selectivity was assessed by examining inhibition of RFTS-containing DNMT1 (amino acids 351–1616), CD-DNMT3A/DNMT3L complex, and the bacterial cytosine methyltransferase from M. SssI (New England Biolabs) using the endonuclease-coupled DNA methylation assay. Triplicate assays (100 µl) containing 0.25 mM SAM, 0.2 µM oligonucleotide 8006, 0.8 U GlaI, 20 nM methyltransferase, 20 µM inhibitor and 1% DMSO were conducted in 96 well plates. Following enzyme addition, assay plates were incubated at 37°C for 75 min and fluorescence was measured in a BioTek Neo plate reader. A control containing only GlaI was subtracted from each assay. […] Percent activity was determined by comparing product formation to a DMSO containing control assay.

[3] = target: T2, DNMT1 (amino acids 621–1616) (Homo sapiens, UniProt P26358); test: Validation of HTS hits, endonuclease-coupled DNA methylation assay; assay type: biochemical; parameters: Percent Activity: concentration or dose not given beside the values; details: for Percent Activity: from initial velocity compared to DMSO control; for Normalized RFU: normalized to DMSO control (100) and GlaI control without DNMT1 (0); for RFU: relative fluorescence after 25-minute incubation at 37 °C, 10.9 µM test compound, three replicates; for vo (initial velocity): first 12 minutes of GlaI corrected triplicate reaction traces
T2 construct: RFTS-lacking DNMT1, amino acids 621–1616; made in house
T2 sequence (P26358 621-1616): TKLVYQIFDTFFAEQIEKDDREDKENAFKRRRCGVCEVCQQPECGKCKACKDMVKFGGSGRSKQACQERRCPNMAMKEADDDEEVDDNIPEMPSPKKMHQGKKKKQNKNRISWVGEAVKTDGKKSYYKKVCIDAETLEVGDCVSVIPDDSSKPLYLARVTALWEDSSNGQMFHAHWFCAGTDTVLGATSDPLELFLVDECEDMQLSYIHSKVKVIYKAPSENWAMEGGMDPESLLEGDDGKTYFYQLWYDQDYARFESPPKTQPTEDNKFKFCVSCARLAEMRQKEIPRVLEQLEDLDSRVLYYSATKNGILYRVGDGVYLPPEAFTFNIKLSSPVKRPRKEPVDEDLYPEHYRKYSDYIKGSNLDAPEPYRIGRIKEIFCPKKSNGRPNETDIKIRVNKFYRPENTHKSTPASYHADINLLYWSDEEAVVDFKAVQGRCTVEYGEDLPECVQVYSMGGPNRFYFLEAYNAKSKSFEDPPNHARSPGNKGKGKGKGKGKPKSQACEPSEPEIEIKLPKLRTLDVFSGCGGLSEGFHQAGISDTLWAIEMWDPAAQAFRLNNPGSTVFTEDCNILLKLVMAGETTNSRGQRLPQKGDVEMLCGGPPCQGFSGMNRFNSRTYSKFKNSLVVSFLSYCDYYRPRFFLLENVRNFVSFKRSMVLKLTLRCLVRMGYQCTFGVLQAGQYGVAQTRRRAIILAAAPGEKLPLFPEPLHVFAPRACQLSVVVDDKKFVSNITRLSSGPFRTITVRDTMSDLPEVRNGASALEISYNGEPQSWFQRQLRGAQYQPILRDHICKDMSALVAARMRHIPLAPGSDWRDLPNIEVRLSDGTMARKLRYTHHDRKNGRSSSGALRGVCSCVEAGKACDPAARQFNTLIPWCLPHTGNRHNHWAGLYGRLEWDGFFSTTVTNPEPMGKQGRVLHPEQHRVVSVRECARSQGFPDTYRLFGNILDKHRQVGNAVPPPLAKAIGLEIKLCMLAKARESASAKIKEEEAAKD
Procedure: DNMT activity was measured at 37°C using a fluorogenic DNA methylation assay. In short, a hemi-methylated hairpin oligonucleotide with a 5′ fluorophore and a 3′ quencher is methylated by addition of a DNMT and the methyl-donating co-factor, S-adenosyl methionine (SAM, HPLC-purified from Sigma). The fully methylated product is a substrate for the restriction endonuclease GlaI (Sibenzyme), which cleaves the oligonucleotide, releasing the fluorophore from the quencher and generating fluorescence. The oligonucleotide substrate (5′-FAM–[…]m[…]mCGmCATAGG-3′-Iowa Black, in which mC denotes 5-methyldeoxycytidylate residues), termed 8006, was synthesized by Integrated DNA Technologies, Coralville, IA. 96 well assays were performed in Co-Star black half-area plates and read in a Biotek Synergy Neo plate reader. 384 well assays were performed in Nunc flat-bottomed black plates and read in a PerkinElmer EnVision plate reader. FAM fluorescence was measured using excitation and emission wavelengths of 485 nm and 520 nm, respectively.
HTS against the Spectrum compound collection (Microsource, Gaylordsville, CT) was performed in eight 384 well plates. Using a Multiflo dispenser (Biotek), 75 µl of assay buffer (10.8 mM Tris-HCl pH 7.5, 1.08 mM MgCl2, 1.08 mM DTT, 108 mM potassium glutamate, 0.108 mg/ml BSA, 10.8 µM SAM, 21.6 nM oligonucleotide 8006, 5.4% glycerol) was dispensed into each well. 1 µl of each compound at 880 µM in DMSO (columns 3–22) or DMSO (columns 1, 2, 23 and 24) was added to assay plates using a Microlab Star liquid handling robot (Hamilton) and the plate was incubated at 37°C for 10 minutes. Following this warming step, 5 µl enzyme solution (either a DNMT1-containing solution of 20 mM Tris-HCl, pH 7.5, 300 mM NaCl, 2 mM DTT, 49 nM DNMT1 (amino acids 621–1616), 0.08 U/µl GlaI, 30% glycerol to columns 2–23 or a GlaI control solution of 20 mM Tris-HCl, pH 7.5, 300 mM NaCl, 2 mM DTT, 0.08 U/µl GlaI, 30% glycerol to columns 1 and 24) was added and the plate was again incubated at 37°C for 25 minutes. […] Each 384 well plate contained two columns of negative (n) and positive (p) controls for inhibitor activity. Columns 2 and 23 were the n controls with DMSO without test compound. Columns 1 and 24 were the p controls without DNMT1. Thus, 320 compounds were assayed per 384 well plate in columns 3–22.
Data across the screen were normalized to the p (0% DNMT1 activity) and n (100% DNMT1 activity) controls on each plate. […] Validation assays (81 µl total volume, identical buffer conditions to those used in the HTS screen) were performed in triplicate in 96 well plates with FAM fluorescence measured over the course of 1 hour. A control containing GlaI in the absence of DNMT1 was subtracted from each assay condition. Corrected assay traces were plotted and compared to DMSO-containing control traces in Prism (GraphPad Software, Inc).

[4] = target: T2, DNMT1 (amino acids 621–1616); test: Detergent test, endonuclease-coupled DNA methylation assay; assay type: biochemical; details: 5 µM compound
Text: The effect of detergent on observed DNMT1 inhibition was examined using the endonuclease-coupled DNA methylation assay. […] A control containing GlaI in the absence of DNMT1 was subtracted from each assay condition. Corrected assay traces were fitted in Prism.

[5] = test system: GlaI; test: GlaI counterscreen; assay type: biochemical; details: 11 µM test compound; for Initial Velocity: 5 nM oligonucleotide 8007, 0.2 U GlaI; for Percent Activity: compared to DMSO
Procedure: GlaI inhibitors were identified and excluded using a fluorescence-based assay. Duplicate assays (80 µl) were conducted in 96 well plates. Assays contained 10 mM Tris-HCl pH 7.5, 100 mM potassium glutamate, 1 mM MgCl2, 1 mM DTT, 0.1 mg/mL BSA, 5% glycerol, 5 nM oligonucleotide 8007 (5′-FAM-CCTATGmCGm[…]mCGmCATAGG-3′-Iowa Black, where mC denotes 5-methyldeoxycytidylate residues, Integrated DNA Technologies, Coralville, IA), 0.2 U GlaI, 11 µM test compound and 1.2% DMSO. Reactions were initiated by the addition of GlaI. Cleavage of the oligonucleotide releases the 5′ FAM fluorophore from the 3′ Iowa Black quencher and generates fluorescence. A control reaction in the absence of GlaI was subtracted from each assay condition to account for background fluorescence of the internally quenched substrate. Corrected time courses were fitted in Prism.

[6] = absence of 0.01% Triton X-100, read-out: Percent activity, 0.01% Triton X-100 -
[7] = presence of 0.01% Triton X-100, read-out: Percent activity, 0.01% Triton X-100 +

Row | Structure (SMILES) | RFU (ethidium bromide fluorescence) [1] | remaining activity at 20 µM [2] | Percent Activity [3] | Normalized RFU [3] | RFU [3] | remaining activity at 5 µM [4, 6] | remaining activity at 5 µM [4, 7] | Initial Velocity [5] | vo (initial velocity) [3] | Percent Activity [5]
1 | O=C(O)c1cc(O)c2c(c1)[C@@H]([C@@H]1c3cc(C(=O)O)cc(O)c3C(=O)c3c(O[C@H]4O[C@H](CO)[C@@H](O)[C@H](O)[C@H]4O)cccc31)c1cccc(O[C@H]3O[C@H](CO)[C@@H](O)[C@H](O)[C@H]3O)c1C2=O [Cmpd 36] | 2309 ± 60 RFU | 40 ± 7% | 0% | 5 | 591 ± 41 RFU | 0% | 0% | 28 ± 1 RFU/min | – | –
2 | O=c1c(O)c(-c2ccc(O)c(O)c2)oc2c(O)c(O)cc(O)c12 [Cmpd 33] | 2524 ± 45 RFU | 86 ± 9% | 45% | 46 | 1145 ± 147 RFU | 53% | 47% | 27 ± 2 RFU/min | 25 ± 3 RFU/min | –
3 | CSc1nc2cc(Cl)c(Oc3cccc(Cl)c3Cl)cc2[nH]1 [Cmpd 29, triclabendazole] | 2500 ± 144 RFU | 19 ± 6% | 36% | 27 | 889 ± 20 RFU | 52% | 46% | 22 ± 2 RFU/min | 20 ± 2 RFU/min | 79%
4 | CC1/C=C/C=C/C=C/C=C/C=C/C=C/C=C/C(O[C@@H]2O[C@H](C)[C@H](O)[C@@H](O)[C@@H]2N)CC(O)C(C(=O)O)C(O)CC(=O)CC(O)CC(O)CC(O)CC(=O)CCCC(=O)CC(=O)OC1C(C)CC(C)C(O)CC(=O)c1ccc(N)cc1 (stereo partly drawn) [Cmpd 24] | 2389 ± 64 RFU | 49 ± 12% | 9% | 11 | 677 ± 60 RFU | 0% | 0% | 27 ± 1 RFU/min | 5 ± 1 RFU/min | –
5 | O=C(O)c1cc(O)c2c(c1)[C@@H]([C@H]1c3cc(C(=O)O)cc(O)c3C(=O)c3c(O[C@H]4O[C@H](CO)[C@@H](O)[C@H](O)[C@H]4O)cccc31)c1cccc(O[C@H]3O[C@H](CO)[C@@H](O)[C@H](O)[C@H]3O)c1C2=O [Cmpd 22] | 2415 ± 150 RFU | 20 ± 5% | 0% | 7 | 621 ± 12 RFU | 7% | 9% | 24 ± 1 RFU/min | – | 86%
6 | Oc1cc(Cl)ccc1Oc1ccc(Cl)cc1Cl [Cmpd 13, triclosan] | 2406 ± 5 RFU | 25 ± 4% | 27% | 19 | 779 ± 42 RFU | 52% | 48% | 28 ± 2 RFU/min | 15 ± 2 RFU/min | –
7 | O=C1c2ccccc2C(=O)c2c1ccc(O)c2O [Cmpd 26, alizarin] | 2364 ± 30 RFU | 68 ± 11% | 49% | 37 | 1024 ± 110 RFU | 67% | 63% | 22 ± 1 RFU/min | 27 ± 2 RFU/min | 79%
8 | O=C(O)C(S)C(S)C(=O)O (stereo not drawn) [Cmpd 51] | 2525 ± 200 RFU | 36 ± 7% | 9% | 6 | 612 ± 55 RFU | 10% | 8% | 25 ± 1 RFU/min | 5 ± 1 RFU/min | 89%
9 | CC(=O)NCCc1ccc(O)c(-c2c(O)c(O)c3c(c2O)C(=O)c2c(cc(O)c(C(=O)O)c2C(=O)O)C3=O)c1 [Cmpd 40, Laccaic acid A] | 2311 ± 148 RFU | 82 ± 10% | 11% | 5 | 602 ± 4 RFU | 56% | 58% | 22 ± 3 RFU/min | 6 ± 1 RFU/min | 79%
